Measurements from patent US20170038387A1, “METHODS FOR TREATING CHRONIC LYMPHOCYTIC LEUKEMIA AND THE USE OF BIOMARKERS AS A PREDICTOR OF CLINICAL SENSITIVITY TO IMMUNOMODULATORY THERAPIES” (Celgene Corporation, priority 2015, published 2017).

Tests used:
[1] = tested on: PDE6D; experiment: Western blot of residual PDE6D protein level; assay type: cell-based; conditions: 1 μM Compound A vs 10 μM lenalidomide, 72 hours; EHEB, I83-E95, Mec2, CII, and CI
Experimental: Cells were then harvested and processed for SDS-PAGE and western blot. PDE6D antibody was purchased from Pierce and used at 1:300. For western blot quantification, the band intensity was measured using an Odyssey imager and then normalized to β-actin loading controls. Scatter plot: […]

[2] = tested on: primary CLL samples; experiment: TMT-tagging and mass-spectrometry profiling of relative protein abundance after compound exposure; assay type: cell-based, human
Source text: Data import: Relative abundance (RA) data was imported into the R statistical programming environment v.3.1.2. Proteins with less than one spectral count in any of the three MS runs for each case scenario were filtered out and relative abundance was scale normalized to the same median by using normalizeBetweenArrays( ) function implemented in the limma package for Bioconductor (see Yang et al., Nucleic Acids Research, 30(4), e15 (2002)).
Comparative analysis: RA scores were log 2-transformed to perform direct comparison of compounds exposure versus DMSO control and a paired moderated t-test (see Smyth, Statistical Applications in Genetics and Molecular Biology, 3(1), article 3 (2004)) was performed by using lmfit( ) and eBayes( ) functions form limma package to test differential relative abundance between experimental conditions. For differential analysis across cases, the log-2 fold changes of replicates for two of the case scenarios were considered.
Linear regression analysis: Linear regression was modeled by using lm( ) function from the stats package. This function provided the correlation coefficients as well as the linear fitted model. Data were assessed for outliers detection within the linear model via the Studentized residuals method (implemented in outlierTest( ) function from car package) and deemed significant if their q-values were under a threshold of 0.05 (5%).
The proteins subjected to the analysis were those with more than one spectral count matched in three MS runs representing each case scenario. A total of 6114, 6070, 5982 and 5382 proteins were retained for each case scenario. Differential expression analysis was applied to the high and consistent coverage of 4594 proteins quantified across all case scenarios. FIGS. 2A-2D show distribution of normalized relative abundances for each replicate of the four case scenarios (Cases B1-B4). The standard deviation of each replicate is represented as a stair-plot line at the bottom of the boxplot. FIGS. 3A-3D show heatmaps representing correlations of log 2 fold-changes of protein levels post compound treatment as compared with DMSO across conditions for all case scenarios. Low correlation of log 2 fold-changes at 6 hours may be due to the alteration of a small subset of proteins at an early time point without strong general effects across the proteome. Stronger correlations at 24 hours can be linked to a higher proportion of proteins perturbed reflecting downstream changes upon compound exposure.

[3] = Cmp A vs. len, Case B1, 10 μM, 24 hours

Cc1nc2cccc(N)c2c(=O)n1C1CCC(=O)NC1=O (stereo not drawn) [Compound A, 3-(5-amino-2-methyl-4-oxo-4H-quinazolin-3-yl)-piperidine-2,6-dione] was tested, and the PDE6D reduction [1] was “more PDE6D reduction”, the “protein abundance levels of SELL, SNX20 and KLF13 upon exposure” value ([2]; 10 μM, 24 hours) was “down-regulated” and the “level of WIZ (widely-interspaced zinc-finger) upon exposure” value ([2]; Case B1) was “decreased”. For the same molecule, the “RA upon Cmp A vs. len Treatment, IKZF1 (Q13422)” value ([2]; Case B1, 10 μM, 24 hours) was “Lower”, the “RA upon Cmp A vs. len treatment, BCL2L1 (Q07817)” value ([2]; Case B1, 10 μM, 24 hours) was “Higher” and the “RA upon Cmp A vs. len treatment, GZMB (P10144)” value ([2]; Case B1, 10 μM, 24 hours) was “Lower”. For the same molecule, the “RA upon Cmp A vs. len treatment, IGHM (P01871-2)” value ([2]; Case B1, 10 μM, 24 hours) was “Lower”, the “RA upon Cmp A vs. len treatment, IKZF1 (Q13422-2)” value ([2]; Case B1, 10 μM, 24 hours) was “Lower” and the “RA upon Cmp A vs. len treatment, IRF8 (Q02556)” value ([2]; Case B1, 10 μM, 24 hours) was “Lower”. The “RA upon Cmp A vs. len treatment, KLF13 (Q9Y2Y9)” value ([2]; Case B1, 10 μM, 24 hours) was “Lower”, the “RA upon Cmp A vs. len treatment, LGALS9 (O00182)” value ([2]; Case B1, 10 μM, 24 hours) was “Lower” and the “RA upon Cmp A vs. len treatment, MARCKS (P29966)” value ([2]; Case B1, 10 μM, 24 hours) was “Higher”. For the same molecule, the “RA upon Cmp A vs. len treatment, NDE1 (Q9NXR1)” value ([2]; Case B1, 10 μM, 24 hours) was “Higher”, the “RA upon Cmp A vs. len treatment, NFKBIE (O00221)” value ([2]; Case B1, 10 μM, 24 hours) was “Lower” and the “RA upon Cmp A vs. len treatment, PTK2B (Q14289-2)” value ([2]; Case B1, 10 μM, 24 hours) was “Higher”. The “RA upon Cmp A vs. len treatment, SAMSN1 (Q9NSI8)” value ([2]; Case B1, 10 μM, 24 hours) was “Higher”, the “RA upon Cmp A vs. len treatment, SELL (P14151-2)” value ([2]; Case B1, 10 μM, 24 hours) was “Lower” and the “RA upon Cmp A vs. len treatment, SLAMF1 (Q13291)” value ([2]; Case B1, 10 μM, 24 hours) was “Higher”. The “RA upon Cmp A vs. len treatment, SNX20 (Q7Z614)” value ([2]; Case B1, 10 μM, 24 hours) was “Lower”, the “RA upon Cmp A vs. len treatment, SOD2 (P04179)” value ([2]; Case B1, 10 μM, 24 hours) was “Higher” and the “RA upon Cmp A vs. len treatment, TCF7 (P36402-3)” value ([2]; Case B1, 10 μM, 24 hours) was “Lower”. For the same molecule, the “RA upon Cmp A vs. len treatment, TRAF1 (Q13077)” value ([2]; Case B1, 10 μM, 24 hours) was “Higher”, the “RA upon Cmp A vs. len treatment, WIZ (M0QXA7)” value ([2]; Case B1, 10 μM, 24 hours) was “Lower” and the “RA upon Cmp A vs. len treatment, ZBTB10 (Q96DT7)” value ([2]; Case B1, 10 μM, 24 hours) was “Higher”. For the same molecule, the “RA upon Cmp A vs. len Treatment, IKZF1 (Q13422)” value ([2]; Case B2, 10 μM, 24 hours) was “Lower”, the “RA upon Cmp A vs. len Treatment, IKZF3 (Q9UKT9)” value ([2]; Case B2, 10 μM, 24 hours) was “Lower” and the “abundance levels of GBP2 and GBP4 upon exposure” value ([2]; Case B3) was “increased abundance levels”. For the same molecule, the “RA upon Cmp A vs. len Treatment, CD40 (P25942)” value ([2]; Case B3, 10 μM, 24 hours) was “Higher”, the “RA upon Cmp A vs. len Treatment, CR2 (P20023-3)” value ([2]; Case B3, 10 μM, 24 hours) was “Higher” and the “RA upon Cmp A vs. len Treatment, CTSS (P25774)” value ([2]; Case B3, 10 μM, 24 hours) was “Higher”. The “RA upon Cmp A vs. len Treatment, GBP1 (P32455)” value ([2]; Case B3, 10 μM, 24 hours) was “Higher”, the “RA upon Cmp A vs. len Treatment, IKZF1 (Q13422)” value ([2]; Case B3, 10 μM, 24 hours) was “Lower” and the “RA upon Cmp A vs. len Treatment, IKZF3 (Q9UKT9)” value ([2]; Case B3, 10 μM, 24 hours) was “Lower”. The “RA upon Cmp A vs. len Treatment, ISG20 (Q96AZ6)” value ([2]; Case B3, 10 μM, 24 hours) was “Higher”, the “RA upon Cmp A vs. len Treatment, SASH1 (O94885)” value ([2]; Case B3, 10 μM, 24 hours) was “Higher” and the “RA upon Cmp A vs. len Treatment, SEMA7A (O75326)” value ([2]; Case B3, 10 μM, 24 hours) was “Higher”. For the same molecule, the “RA upon Cmp A vs. len treatment, PTK2B (Q14289-2)” value ([2]; Case B3, 10 μM, 24 hours) was “Higher”, the “RA upon Cmp A vs. len treatment, SAMSN1 (Q9NSI8)” value ([2]; Case B3, 10 μM, 24 hours) was “Higher” and the “RA upon Cmp A vs. len treatment, SELL (P14151-2)” value ([2]; Case B3, 10 μM, 24 hours) was “Lower”. For the same molecule, the “RA upon Cmp A vs. len treatment, SLAMF1 (Q13291)” value ([2]; Case B3, 10 μM, 24 hours) was “Higher”, the “RA upon Cmp A vs. len treatment, SOD2 (P04179)” value ([2]; Case B3, 10 μM, 24 hours) was “Higher” and the “RA upon Cmp A vs. len treatment, TRAF1 (Q13077)” value ([2]; Case B3, 10 μM, 24 hours) was “Higher”. The IRF5 protein level ([2]; Case B4 (not quantified in B2)) was “exclusively decreased”, the “RA upon Cmp A vs. len Treatment, PDE6D (O43924)” value ([2]; Case B4, 10 μM, 24 hours) was “Lower” and the “logFC BCL2L1 (Q07817)” value [2, 3] was 0.5326. For the same molecule, the “logFC GZMB (P10144)” value [2, 3] was −1.175, the “logFC IGHM (P01871-2)” value [2, 3] was −0.6625 and the “logFC IKZF1 (Q13422)” value [2, 3] was −1.709.
